Assay results published in PubChem BioAssay (NCI).
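In this assay, cells in 96-well plates receive the compound at five concentrations for 48 hours. Endpoints are linearly interpolated between the surrounding concentrations. The concentration for 50% growth inhibition is given as GI50. At the TGI there is no net growth.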

How the values were obtained:
Experiment in all cases: growth of human tumour cells (NCI), 48 h
ACHN renal = test system: ACHN renal
SK-OV-3 ovarian = test system: SK-OV-3 ovarian
HOP-62 NSCLC = test system: HOP-62 NSCLC
IGROV1 ovarian = test system: IGROV1 ovarian
HCT-15 colon = test system: HCT-15 colon
SK-MEL-28 melanoma = test system: SK-MEL-28 melanoma
MCF7 breast = test system: MCF7 breast
SN12C renal = test system: SN12C renal
BT-549 breast = test system: BT-549 breast
SW-620 colon = test system: SW-620 colon
UO-31 renal = test system: UO-31 renal
HCC-2998 colon = test system: HCC-2998 colon
NCI-H23 lung = test system: NCI-H23 lung
MOLT-4 leukemia = test system: MOLT-4 leukemia
U251 CNS = test system: U251 CNS
HOP-92 NSCLC = test system: HOP-92 NSCLC
PC-3 prostate = test system: PC-3 prostate
SF-268 CNS = test system: SF-268 CNS
RPMI-8226 leukemia = test system: RPMI-8226 leukemia
OVCAR-8 ovarian = test system: OVCAR-8 ovarian
K-562 leukemia = test system: K-562 leukemia
MALME-3M melanoma = test system: MALME-3M melanoma
UACC-257 melanoma = test system: UACC-257 melanoma
HS 578T breast = test system: HS 578T breast
NCI-H522 lung = test system: NCI-H522 lung
CAKI-1 renal = test system: CAKI-1 renal
SR leukemia = test system: SR leukemia
COLO 205 colon = test system: COLO 205 colon
SF-539 CNS = test system: SF-539 CNS
MDA-MB-435 = test system: MDA-MB-435
DU-145 prostate = test system: DU-145 prostate
M14 melanoma = test system: M14 melanoma
A498 renal = test system: A498 renal
HL-60(TB) leukemia = test system: HL-60(TB) leukemia
NCI/ADR-RES ovarian = test system: NCI/ADR-RES ovarian
SK-MEL-5 melanoma = test system: SK-MEL-5 melanoma
LOX IMVI melanoma = test system: LOX IMVI melanoma
T-47D breast = test system: T-47D breast
RXF 393 renal = test system: RXF 393 renal
HT29 colon = test system: HT29 colon
OVCAR-4 ovarian = test system: OVCAR-4 ovarian
TK-10 renal = test system: TK-10 renal
KM12 colon = test system: KM12 colon
UACC-62 melanoma = test system: UACC-62 melanoma
SK-MEL-2 melanoma = test system: SK-MEL-2 melanoma
NCI-H226 lung = test system: NCI-H226 lung
EKVX NSCLC = test system: EKVX NSCLC
CCRF-CEM leukemia = test system: CCRF-CEM leukemia
SF-295 CNS = test system: SF-295 CNS
HCT-116 colon = test system: HCT-116 colon
A549 NSCLC = test system: A549 NSCLC
SNB-75 CNS = test system: SNB-75 CNS
SNB-19 CNS = test system: SNB-19 CNS
MDA-MB-231 breast = test system: MDA-MB-231 breast
OVCAR-3 ovarian = test system: OVCAR-3 ovarian
OVCAR-5 ovarian = test system: OVCAR-5 ovarian
786-0 renal = test system: 786-0 renal

## COc1cccc2c1C(=O)c1c(O)c3c(c(O)c1C2=O)C[C@@](O)(C(C)=O)C[C@@H]3O[C@H]1C[C@H](N)[C@H](O)[C@H](C)O1
ACHN renal
  GI50: 45.2 nM
  TGI: 395 nM
SK-OV-3 ovarian
  GI50: 88.7 nM
  TGI: 1320 nM
HOP-62 NSCLC
  GI50: 53 nM
  TGI: 263 nM
IGROV1 ovarian
  GI50: 60.9 nM
  TGI: 2580 nM
HCT-15 colon
  TGI: 5690 nM
SK-MEL-28 melanoma
  GI50: 132 nM
  TGI: 680 nM
MCF7 breast
  GI50: 19.5 nM
  TGI: 2040 nM
SN12C renal
  GI50: 41.6 nM
  TGI: 451 nM
BT-549 breast
  GI50: 153 nM
  TGI: 924 nM
SW-620 colon
  GI50: 35.5 nM
  TGI: 855 nM
UO-31 renal
  GI50: 175 nM
  TGI: 1260 nM
HCC-2998 colon
  GI50: 99.2 nM
  TGI: 475 nM
NCI-H23 lung
  GI50: 59.4 nM
  TGI: 262 nM
MOLT-4 leukemia
  GI50: 16.5 nM
  TGI: 117 nM
U251 CNS
  GI50: 38.1 nM
  TGI: 217 nM
HOP-92 NSCLC
  GI50: 29.6 nM
  TGI: 276 nM
PC-3 prostate
  GI50: 108 nM
  TGI: 975 nM
SF-268 CNS
  GI50: 54.8 nM
  TGI: 585 nM
RPMI-8226 leukemia
  GI50: 90.2 nM
  TGI: 327 nM
OVCAR-8 ovarian
  GI50: 41.6 nM
  TGI: 1090 nM
K-562 leukemia
  GI50: 51.3 nM
  TGI: 868 nM
MALME-3M melanoma
  TGI: 235 nM
UACC-257 melanoma
  TGI: 426 nM
HS 578T breast
  GI50: 120 nM
  TGI: 1820 nM
NCI-H522 lung
  GI50: 36.2 nM
  TGI: 163 nM
CAKI-1 renal
  GI50: 229 nM
  TGI: 1530 nM
SR leukemia
  GI50: 7.24 nM
  TGI: 188 nM
COLO 205 colon
  GI50: 52.4 nM
  TGI: 655 nM
SF-539 CNS
  TGI: 546 nM
MDA-MB-435
  GI50: 137 nM
  TGI: 672 nM
DU-145 prostate
  GI50: 68.7 nM
  TGI: 340 nM
M14 melanoma
  GI50: 118 nM
  TGI: 653 nM
A498 renal
  TGI: 896 nM
HL-60(TB) leukemia
  GI50: 31.2 nM
  TGI: 358 nM
NCI/ADR-RES ovarian
  GI50: 1230 nM
  TGI: 9040 nM
SK-MEL-5 melanoma
  GI50: 48.8 nM
  TGI: 143 nM
LOX IMVI melanoma
  TGI: 107 nM
T-47D breast
  GI50: 40.8 nM
  TGI: 312 nM
RXF 393 renal
  GI50: 92.4 nM
  TGI: 341 nM
HT29 colon
  GI50: 50.7 nM
  TGI: 337 nM
OVCAR-4 ovarian
  GI50: 128 nM
  TGI: 1060 nM
TK-10 renal
  GI50: 93.6 nM
  TGI: 793 nM
KM12 colon
  GI50: 96 nM
  TGI: 497 nM
UACC-62 melanoma
  GI50: 59.8 nM
  TGI: 205 nM
SK-MEL-2 melanoma
  GI50: 158 nM
  TGI: 506 nM
NCI-H226 lung
  GI50: 53.2 nM
  TGI: 119 nM
EKVX NSCLC
  GI50: 360 nM
  TGI: 2630 nM
CCRF-CEM leukemia
  GI50: 22.8 nM
  TGI: 293 nM
SF-295 CNS
  GI50: 42.8 nM
  TGI: 245 nM
HCT-116 colon
  GI50: 28.6 nM
  TGI: 216 nM
A549 NSCLC
  GI50: 42.7 nM
  TGI: 201 nM
SNB-75 CNS
  GI50: 39.1 nM
  TGI: 359 nM
SNB-19 CNS
  GI50: 36.1 nM
  TGI: 1350 nM
MDA-MB-231 breast
  GI50: 201 nM
  TGI: 2750 nM
OVCAR-3 ovarian
  GI50: 125 nM
  TGI: 777 nM
OVCAR-5 ovarian
  GI50: 155 nM
  TGI: 2260 nM
786-0 renal
  GI50: 68.5 nM
  TGI: 517 nM
